The results in this text go back to ChEMBL document CHEMBL3351622, “Synthesis and evaluation of 9-deoxy analogues of (-)-thysanone, an inhibitor of HRV 3C protease” (Eur J Med Chem, 2014).

Assay [1] is described as follows: Inhibition of human rhinovirus 3C protease. Also on record: species or system Human rhinovirus sp.
The nature of assay [2]: Inhibition of human rhinovirus 3C protease incubated for 1 hr by solid phase fluorescent assay. Also on record: species or system Human rhinovirus sp.

Turning to `C[C@H]1CC2=C(C(=O)c3c(O)cc(O)cc3C2=O)[C@H](O)O1`, the IC50 worked out at 47 µM in assay [1] and 51.8 µM in assay [2].
As for `C[C@H]1CC2=C(C(=O)c3ccc(O)cc3C2=O)[C@H](O)O1` (racemic), in assay [2], the IC50 was found to be 20.3 µM.
On the same count and under the same terms, to `C[C@H]1CC2=C(CO1)C(=O)c1ccc(O)cc1C2=O` (racemic) belongs 30.9 µM; to `CC(C)Oc1ccc2c(c1)C(=O)C1=C(CO[C@@H](C)C1)C2=O` (racemic), 35.7 µM.
